Earlier results on two compounds are cited in US20100249179A1, “Farnesoid X Receptor Agonists” (SMITHKLINE BEECHAM CORPORATION, priority 2007, published 2010).

Data set [1] relates to C57BL mice on high-fat diet. Particulars: cited from earlier work.
In another data set the test system is male ob/ob mice. Particulars: GW4064 30 mg/kg intraperitoneally; cited from earlier work.
The subject of another data set is diabetic db/db mice. Particulars: cited from earlier work.
The test system of the next data set is bile duct-ligated mouse. Particulars: bile duct-ligated mouse model; cited from earlier work.
Data set [2] relates to mice on a lithogenic diet. Particulars: cited from earlier work.
The next data set concerns cultured HSCs. Particulars: cited from earlier work.
Data set [3] concerns rodent models of hepatic fibrosis. Particulars: multiple rodent models; cited from earlier work.
The mark [4] stands for this setting: GW4064 100 mg/kg twice a day orally, high-fat diet mice, 100 mg/kg.
The mark [5] stands for this setting: GW4064 100 mg/kg twice a day orally, high-fat diet mice.
[6] abbreviates: oral GW4064 30 mg/kg bid, db/db mice.

Entries after “also recorded” stand apart in the source; their conditions may differ.

In the case of `CC(C)c1onc(-c2c(Cl)cccc2Cl)c1COc1ccc(/C=C/c2cccc(C(=O)O)c2)c(Cl)c1` [GW4064], the glucose tolerance result in data set [1] (GW4064 100 mg/kg twice a day orally, high-fat diet mice, GTT, 100 mg/kg) is on record as “corrected glucose intolerance; also recorded: improve”. Also, in data set [1] (setting [4]), the serum glucose entry is “decreased”, the serum insulin result is listed as “decreased” and the serum triglyceride result was “decreased”. Moreover, in data set [1] (setting [5]), the “high-fat diet induced body weight gain” value was “reduced” and the liver triglyceride content entry is “reduced”. In data set [1] (mice on high-fat diet), the body fat mass entry is reported as “decrease”, the body weight entry is recorded as “decrease” and the total cholesterol result was “decrease”. Moreover, in the data set on male ob/ob mice, the body weight entry was “did not alter”, the fasting blood glucose result is recorded as “no effect”, the food intake entry was “did not alter” and the glucose tolerance entry is listed as “improved”. In the data set with male ob/ob mice, the insulin concentration entry was “decreased” and the insulin sensitivity result is given as “enhanced”. Also, in the data set with diabetic db/db mice (db/db mice), the “glycogen storage in the liver” value was “enhanced” and the “insulin signalling in the liver” value is “enhanced”. In addition, in the data set with diabetic db/db mice (diabetic db/db mice), the hyperglycemia entry is recorded as “significantly improved” and the hyperlipidemia entry is “significantly improved”. For the same compound, in the data set with diabetic db/db mice (setting [6]), the NEFA result was “decreased”, the blood glucose entry was “decreased”, the “serum β-hydroxybutyrate” value is “decreased” and the total cholesterol entry is listed as “decreased”. In the data set on diabetic db/db mice (setting [6]), the triglyceride entry is on record as “decreased”. In the data set on bile duct-ligated mouse, the bacterial overgrowth entry is on record as “decreased”, the mucosal barrier entry is “improved” and the “translocation of bacteria to mesenteric lymph nodes” value was “decreased”. For the same compound, the “formation of cholesterol crystals in the bile” value in data set [2] is “prevented”.

Turning to `CC[C@H]1[C@@H](O)[C@@H]2[C@H](CC[C@]3(C)[C@@H]([C@H](C)CCC(=O)O)CC[C@@H]23)[C@@]2(C)CC[C@@H](O)C[C@@H]12` [Example 6EtCDCA, 6-ethyl-chenodeoxycholic acid], in the data set with cultured HSCs, the “expression of fibrotic markers such as α-smooth muscle actin and α1(I) collagen” value is on record as “decreased”. Moreover, the hepatic fibrosis result in data set [3] is “prevent development and promote resolution”.
